Measurements as given in ChEMBL document CHEMBL1201862, “PubChem BioAssay data set” (2004).
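48-hour exposure; five concentrations; linearly interpolated endpoints. Here, GI50 denotes the concentration required for 50% inhibition of growth.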 Active and inactive are the calls of the source. No stated cut-off is given here; in the data, active = GI50 up to about 1.1 µM and inactive = higher.

Assays:
Assay in all cases: growth of human tumour cells (NCI), 48 h
NCI-H226 = tested on: NCI-H226
M19-MEL = tested on: M19-MEL
UO-31 = tested on: UO-31
K562 = tested on: K562
DMS-273 = tested on: DMS-273
ACHN = tested on: ACHN
CAKI-1 = tested on: CAKI-1
SF-268 = tested on: SF-268
RXF 393 = tested on: RXF 393
SN12C = tested on: SN12C
KM12 = tested on: KM12
Malme-3M = tested on: Malme-3M
UACC-62 = tested on: UACC-62
OVCAR-5 = tested on: OVCAR-5
HOP-92 = tested on: HOP-92
COLO 205 = tested on: COLO 205
786-0 = tested on: 786-0
NCI-H460 = tested on: NCI-H460
SNB-75 = tested on: SNB-75
HOP-18 = tested on: HOP-18
M14 = tested on: M14
HCC 2998 = tested on: HCC 2998
HCT-116 = tested on: HCT-116
DLD-1 = tested on: DLD-1
XF498 = tested on: XF498
HL-60 = tested on: HL-60
EKVX = tested on: EKVX
TK-10 = tested on: TK-10
SW-620 = tested on: SW-620
DMS-114 = tested on: DMS-114
SNB-19 = tested on: SNB-19
SF-539 = tested on: SF-539
NCI-H522 = tested on: NCI-H522
A549 = tested on: A549
OVCAR-8 = tested on: OVCAR-8
UACC-257 = tested on: UACC-257
SK-MEL-5 = tested on: SK-MEL-5
HCT-15 = tested on: HCT-15
NCI-H23 = tested on: NCI-H23
HT-29 = tested on: HT-29
OVCAR-4 = tested on: OVCAR-4
IGROV-1 = tested on: IGROV-1
LXFL 529 = tested on: LXFL 529
SF-295 = tested on: SF-295
SK-MEL-28 = tested on: SK-MEL-28
U-251 = tested on: U-251
SK-OV-3 = tested on: SK-OV-3
SK-MEL-2 = tested on: SK-MEL-2
LOX IMVI = tested on: LOX IMVI
CCRF-CEM = tested on: CCRF-CEM
HOP-62 = tested on: HOP-62
A498 = tested on: A498
KM-20L2 = tested on: KM-20L2
OVCAR-3 = tested on: OVCAR-3
SNB-78 = tested on: SNB-78

In the case of Cc1cc(Cl)ccc1NC1=NC(=O)C(CC(=O)Nc2cccc(Cl)c2)S1 (stereo not given), the GI50 (NCI-H226) is reported as > 100 µM (inactive), the GI50 (M19-MEL) is reported as 43.9 µM (inactive) and the GI50 (UO-31) is reported as 29.7 µM (inactive). For the same compound, the GI50 (K562) was 13.8 µM (inactive), the GI50 (DMS-273) was 29.8 µM (inactive) and the GI50 (ACHN) was 11.2 µM (inactive). For the same compound, the GI50 (CAKI-1) was 8.79 µM (inactive), the GI50 (SF-268) was 46.9 µM (inactive) and the GI50 (RXF 393) was 12.1 µM (inactive). For the same compound, the GI50 (SN12C) was 53.5 µM (inactive), the GI50 (KM12) was 35.2 µM (inactive) and the GI50 (Malme-3M) was > 100 µM (inactive). The GI50 (UACC-62) was 22.2 µM (inactive), the GI50 (OVCAR-5) was 16.1 µM (inactive) and the GI50 (HOP-92) was 14.2 µM (inactive). For the same compound, the GI50 (COLO 205) was 72.1 µM (inactive), the GI50 (786-0) was 46.8 µM (inactive) and the GI50 (NCI-H460) was 62.2 µM (inactive). The GI50 (SNB-75) was 18.7 µM (inactive), the GI50 (HOP-18) was > 100 µM (inactive) and the GI50 (M14) was 44.7 µM (inactive). For the same compound, the GI50 (HCC 2998) was 63.2 µM (inactive), the GI50 (HCT-116) was 24.2 µM (inactive) and the GI50 (DLD-1) was 21.7 µM (inactive). The GI50 (XF498) was 28.4 µM (inactive), the GI50 (HL-60) was 9.16 µM (inactive) and the GI50 (EKVX) was > 100 µM (inactive). The GI50 (TK-10) was 83.6 µM (inactive), the GI50 (SW-620) was 67 µM (inactive) and the GI50 (DMS-114) was 12.1 µM (inactive). For the same compound, the GI50 (SNB-19) was > 100 µM (inactive), the GI50 (SF-539) was 77.6 µM (inactive) and the GI50 (NCI-H522) was 26.5 µM (inactive). The GI50 (A549) was 20.8 µM (inactive), the GI50 (OVCAR-8) was > 100 µM (inactive) and the GI50 (UACC-257) was 38.8 µM (inactive). For the same compound, the GI50 (SK-MEL-5) was 24.9 µM (inactive), the GI50 (HCT-15) was 32.1 µM and the GI50 (NCI-H23) was 12.9 µM (inactive). For the same compound, the GI50 (HT-29) was 20.5 µM (inactive), the GI50 (OVCAR-4) was 29.2 µM (inactive) and the GI50 (IGROV-1) was 40.3 µM (inactive). For the same compound, the GI50 (LXFL 529) was 39.9 µM (inactive), the GI50 (SF-295) was 18.5 µM (inactive) and the GI50 (SK-MEL-28) was > 100 µM (inactive). For the same compound, the GI50 (U-251) was 33.2 µM (inactive), the GI50 (SK-OV-3) was 42.5 µM (inactive) and the GI50 (SK-MEL-2) was 37.8 µM (inactive). The GI50 (LOX IMVI) was 13.3 µM (inactive), the GI50 (CCRF-CEM) was 22.6 µM (inactive) and the GI50 (HOP-62) was > 100 µM (inactive). For the same compound, the GI50 (A498) was 23.8 µM (inactive), the GI50 (KM-20L2) was 26.5 µM (inactive) and the GI50 (OVCAR-3) was 43 µM (inactive). The GI50 (SNB-78) was > 100 µM (inactive).
